Source: ChEMBL document CHEMBL4219030, “Progress in the discovery of small molecule modulators of the Cys-loop superfamily receptors” (Bioorg Med Chem Lett, 2017)

Key:
[1] = target: Glycine receptor (Rattus norvegicus) (UniProt P22771+P24524+P07727+P20781); test: Positive allosteric modulation of OFA rat embryonic ventral spinal cord neuron glycine receptor assessed as potentiation of glycine-induced chloride current at 1 to 10 uM by whole cell patch-clamp method relative to 10 uM glycine; type: protein-complex assay
[2] = target: T1, 5-hydroxytryptamine receptor 3A (Homo sapiens, UniProt P46098); test: Displacement of [3H]granisetron from human 5-HT3A receptor expressed in HEK293 cells by scintillation counting method; type: cell-based
T1 sequence (P46098 whole entry): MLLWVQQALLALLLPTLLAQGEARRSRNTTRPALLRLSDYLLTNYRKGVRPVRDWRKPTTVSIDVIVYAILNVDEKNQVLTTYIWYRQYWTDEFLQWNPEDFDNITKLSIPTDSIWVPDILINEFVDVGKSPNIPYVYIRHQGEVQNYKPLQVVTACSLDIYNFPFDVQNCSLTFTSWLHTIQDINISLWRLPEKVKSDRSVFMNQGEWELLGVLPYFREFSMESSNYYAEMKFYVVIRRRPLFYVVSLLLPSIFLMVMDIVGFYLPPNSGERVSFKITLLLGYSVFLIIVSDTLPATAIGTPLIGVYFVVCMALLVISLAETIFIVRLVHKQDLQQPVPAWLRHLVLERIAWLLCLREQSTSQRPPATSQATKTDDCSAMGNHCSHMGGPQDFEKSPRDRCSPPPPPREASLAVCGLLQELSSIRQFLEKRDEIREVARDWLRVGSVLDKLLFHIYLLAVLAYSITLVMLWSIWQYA

[3] = target: T2, Serotonin 3 (5-HT3) receptor (Homo sapiens, UniProt O95264+P46098); test: Displacement of [3H]granisetron from human 5-HT3AB receptor expressed in HEK293 cells by scintillation counting method; type: cell-based
T2 sequence (P46098 whole entry): T1 sequence (P46098 whole entry)
T2 sequence (O95264 whole entry): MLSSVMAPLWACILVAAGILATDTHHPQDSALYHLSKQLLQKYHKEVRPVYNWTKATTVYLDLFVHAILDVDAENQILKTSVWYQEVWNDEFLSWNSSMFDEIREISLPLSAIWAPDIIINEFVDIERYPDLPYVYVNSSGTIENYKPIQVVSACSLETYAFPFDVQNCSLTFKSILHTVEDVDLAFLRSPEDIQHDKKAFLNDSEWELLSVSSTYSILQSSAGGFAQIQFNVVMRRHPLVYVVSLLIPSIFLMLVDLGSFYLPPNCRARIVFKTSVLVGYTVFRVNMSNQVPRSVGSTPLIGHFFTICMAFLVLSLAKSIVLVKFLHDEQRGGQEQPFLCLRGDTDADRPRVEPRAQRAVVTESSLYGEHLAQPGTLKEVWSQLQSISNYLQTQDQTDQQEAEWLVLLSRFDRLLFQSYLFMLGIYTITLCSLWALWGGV

[4] = target: T3, Glycine receptor subunit alpha-1 (Homo sapiens) (UniProt P23415); test: Positive allosteric modulation of human glycine receptor alpha1 expressed in HEK293 cells assessed as potentiation of glycine-induced current response at 10 uM measure for 3 to 6 secs by whole cell patch-clamp method relative to glycine; type: cell-based
T3 sequence (whole entry): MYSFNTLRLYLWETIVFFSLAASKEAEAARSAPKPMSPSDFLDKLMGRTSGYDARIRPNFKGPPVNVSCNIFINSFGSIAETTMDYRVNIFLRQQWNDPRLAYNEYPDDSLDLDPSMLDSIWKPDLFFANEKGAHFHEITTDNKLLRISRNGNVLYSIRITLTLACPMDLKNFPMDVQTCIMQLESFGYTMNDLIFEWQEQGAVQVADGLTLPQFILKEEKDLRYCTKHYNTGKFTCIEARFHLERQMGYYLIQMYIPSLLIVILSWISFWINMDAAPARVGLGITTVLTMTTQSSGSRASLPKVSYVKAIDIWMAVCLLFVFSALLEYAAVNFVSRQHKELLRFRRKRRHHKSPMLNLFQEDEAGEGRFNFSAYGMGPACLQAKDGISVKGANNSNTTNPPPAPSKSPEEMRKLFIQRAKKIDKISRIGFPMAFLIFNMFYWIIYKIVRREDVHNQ

[5] = target: Glycine receptor (alpha-1/beta) (Homo sapiens, UniProt P23415+P48167); test: Positive allosteric modulation of human glycine alpha1beta receptor expressed in HEK293T cells assessed as glycine-induced increase in current response after 18 to 24 hrs by membrane potential blue dye based FLIPR assay; type: cell-based
[6] = target: T4, Glycine receptor subunit alpha-1 (Homo sapiens, UniProt P23415); test: Positive allosteric modulation of human glycine alpha1 receptor expressed in HEK293T cells assessed as glycine-induced increase incurrent response after 18 to 24 hrs by membrane potential blue dye based FLIPR assay; type: cell-based
T4 sequence (P23415 whole entry): T3 sequence (whole entry)

[7] = target: T5, Glycine receptor alpha-3/beta (Homo sapiens, UniProt O75311+P48167); test: Positive allosteric modulation of human glycine alpha3beta receptor expressed in HEK293T cells assessed as potentiation of glycine-induced increase in current response after 18 to 24 hrs by membrane potential blue dye based FLIPR assay relative to glycine; type: cell-based
[8] = target: T5, Glycine receptor alpha-3/beta; test: Positive allosteric modulation of human glycine alpha3beta receptor expressed in HEK293T cells assessed as glycine-induced increase in current response after 18 to 24 hrs by membrane potential blue dye based FLIPR assay; type: cell-based
[9] = target: T6, 5-hydroxytryptamine receptor 3A (Cavia porcellus, UniProt O70212); test: Antagonist activity 5-HT3A receptor in guinea pig ileum assessed as inhibition of 2-methyl-5-HT induced response preincubated for 10 mins followed by agonist addition; settings: read-out: pA2 (converted)
T6 sequence (O70212 whole entry): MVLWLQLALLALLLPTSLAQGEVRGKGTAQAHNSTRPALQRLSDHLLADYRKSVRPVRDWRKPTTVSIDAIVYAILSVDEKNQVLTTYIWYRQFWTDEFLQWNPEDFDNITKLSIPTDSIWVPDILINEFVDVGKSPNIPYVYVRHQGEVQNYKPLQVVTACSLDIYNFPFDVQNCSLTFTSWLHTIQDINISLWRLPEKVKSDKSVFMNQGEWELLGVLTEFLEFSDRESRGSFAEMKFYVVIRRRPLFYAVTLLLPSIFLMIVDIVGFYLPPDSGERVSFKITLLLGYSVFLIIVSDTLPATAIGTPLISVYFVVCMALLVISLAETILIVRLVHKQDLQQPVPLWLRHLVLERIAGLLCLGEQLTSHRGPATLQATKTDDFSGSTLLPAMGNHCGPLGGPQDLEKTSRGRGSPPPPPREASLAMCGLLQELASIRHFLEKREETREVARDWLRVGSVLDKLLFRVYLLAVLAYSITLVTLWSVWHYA

[10] = target: T3, Glycine receptor subunit alpha-1 (Homo sapiens); settings: HEK293, 30 uM
Description: Positive allosteric modulation of recombinant human glycine receptor alpha1 expressed in HEK293 cells assessed as increase in glycine-induced current at 30 uM at -60 mV holding potential measured for 1 to 2 secs for every 60 secs by whole cell patch-clamp method relative to glycine

[11] = target: Gamma-aminobutyric acid receptor subunit alpha-1/beta-2 (Rattus norvegicus) (UniProt P62813+P63138); settings: HEK293, 30 uM
Description: Positive allosteric modulation of recombinant rat GABAA receptor alpha1beta2 expressed in HEK293 cells assessed as increase in GABA-induced current at 30 uM at -100 mV holding potential measured for 1 to 2 secs for every 60 secs by whole cell patch-clamp method relative to GABA

[12] = target: GABA A receptor alpha-4/beta-3/gamma-2 (Homo sapiens, UniProt P18507+P28472+P48169); test: Positive allosteric modulation of recombinant human GABAA receptor alpha4beta3gamma2 expressed in Xenopus oocytes assessed as potentiation of GABA induced chloride currents relative to 10 uM GABA; type: cell-based
[13] = target: Gamma-aminobutyric acid receptor subunit alpha-2/beta-3 (Homo sapiens) (UniProt P28472+P47869); test: Positive allosteric modulation of recombinant human GABAA receptor alpha2beta3 expressed in Xenopus oocytes assessed as potentiation of GABA induced chloride current response relative to GABA; type: cell-based
[14] = target: GABA-A receptor; alpha-3/beta-3/gamma-2 (Homo sapiens) (UniProt P18507+P28472+P34903); test: Positive allosteric modulation of recombinant human GABAA receptor alpha3beta3gamma2 expressed in Xenopus oocytes assessed as potentiation of GABA induced chloride currents relative to 10 uM GABA; type: cell-based
[15] = target: GABA-A receptor; alpha-1/beta-3/gamma-2 (Homo sapiens) (UniProt P14867+P18507+P28472); test: Positive allosteric modulation of recombinant human GABAA receptor alpha1beta3gamma2 expressed in Xenopus oocytes assessed as potentiation of GABA induced chloride current response relative to 10 uM GABA; type: cell-based
[16] = target: GABA-A receptor; alpha-6/beta-3/gamma-2 (Homo sapiens) (UniProt P18507+P28472+Q16445); test: Positive allosteric modulation of recombinant human GABAA receptor alpha6beta3gamma2 expressed in Xenopus oocytes assessed as potentiation of GABA induced chloride currents relative to 10 uM GABA; type: cell-based
[17] = target: Gamma-aminobutyric acid receptor subunit alpha-3/beta-3 (Homo sapiens) (UniProt P28472+P34903); test: Positive allosteric modulation of recombinant human GABAA receptor alpha3beta3 expressed in Xenopus oocytes assessed as potentiation of GABA induced chloride current response relative to GABA; type: cell-based
[18] = target: GABA-A receptor; alpha-5/beta-3/gamma-2 (Homo sapiens) (UniProt P18507+P28472+P31644); test: Positive allosteric modulation of recombinant human GABAA receptor alpha5beta3gamma2 expressed in Xenopus oocytes assessed as potentiation of GABA induced chloride currents relative to 10 uM GABA; type: cell-based
[19] = target: GABA-A receptor alpha-1/beta-3 (Homo sapiens) (UniProt P14867+P28472); test: Positive allosteric modulation of recombinant human GABAA receptor alpha1beta3 expressed in Xenopus oocytes assessed as potentiation of GABA induced chloride current response relative to GABA; type: cell-based
[20] = target: Gamma-aminobutyric acid receptor subunit alpha-5/beta-3 (Homo sapiens) (UniProt P28472+P31644); test: Positive allosteric modulation of recombinant human GABAA receptor alpha5beta3 expressed in Xenopus oocytes assessed as potentiation of GABA induced chloride current response relative to GABA; type: cell-based
[21] = target: GABA-A receptor; alpha-2/beta-3/gamma-2 (Homo sapiens) (UniProt P18507+P28472+P47869); test: Positive allosteric modulation of recombinant human GABAA receptor alpha2beta3gamma2 expressed in Xenopus oocytes assessed as potentiation of GABA induced chloride currents relative to 10 uM GABA; type: cell-based

Glycine receptor (Rattus norvegicus), sequence (P07727 whole entry, looked up): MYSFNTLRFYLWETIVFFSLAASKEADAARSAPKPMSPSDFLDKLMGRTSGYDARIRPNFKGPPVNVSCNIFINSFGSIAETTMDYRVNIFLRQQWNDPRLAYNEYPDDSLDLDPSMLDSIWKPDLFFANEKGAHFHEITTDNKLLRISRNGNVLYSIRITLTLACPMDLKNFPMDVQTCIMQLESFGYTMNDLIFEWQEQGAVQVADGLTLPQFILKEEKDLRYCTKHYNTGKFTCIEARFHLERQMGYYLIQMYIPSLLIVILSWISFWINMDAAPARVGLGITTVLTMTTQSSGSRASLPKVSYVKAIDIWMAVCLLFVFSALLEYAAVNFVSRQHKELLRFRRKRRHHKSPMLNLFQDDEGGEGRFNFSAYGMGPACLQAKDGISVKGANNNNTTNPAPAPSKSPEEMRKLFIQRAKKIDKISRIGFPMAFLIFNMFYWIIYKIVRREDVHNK
Glycine receptor (Rattus norvegicus), sequence (P20781 whole entry, looked up): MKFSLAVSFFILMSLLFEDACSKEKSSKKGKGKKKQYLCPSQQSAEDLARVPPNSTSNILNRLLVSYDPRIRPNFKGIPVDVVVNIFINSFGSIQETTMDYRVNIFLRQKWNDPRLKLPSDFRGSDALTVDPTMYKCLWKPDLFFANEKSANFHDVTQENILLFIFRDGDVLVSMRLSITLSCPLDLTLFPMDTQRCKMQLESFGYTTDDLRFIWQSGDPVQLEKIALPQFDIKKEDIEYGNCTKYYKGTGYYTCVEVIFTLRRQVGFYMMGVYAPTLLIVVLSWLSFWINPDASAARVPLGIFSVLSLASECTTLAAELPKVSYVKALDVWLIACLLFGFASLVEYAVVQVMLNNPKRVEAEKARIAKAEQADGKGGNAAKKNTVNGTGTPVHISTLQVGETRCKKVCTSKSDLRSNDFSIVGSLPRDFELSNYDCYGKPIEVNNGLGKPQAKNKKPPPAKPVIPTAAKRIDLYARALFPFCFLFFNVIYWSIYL
Glycine receptor (Rattus norvegicus), sequence (P22771 whole entry, looked up): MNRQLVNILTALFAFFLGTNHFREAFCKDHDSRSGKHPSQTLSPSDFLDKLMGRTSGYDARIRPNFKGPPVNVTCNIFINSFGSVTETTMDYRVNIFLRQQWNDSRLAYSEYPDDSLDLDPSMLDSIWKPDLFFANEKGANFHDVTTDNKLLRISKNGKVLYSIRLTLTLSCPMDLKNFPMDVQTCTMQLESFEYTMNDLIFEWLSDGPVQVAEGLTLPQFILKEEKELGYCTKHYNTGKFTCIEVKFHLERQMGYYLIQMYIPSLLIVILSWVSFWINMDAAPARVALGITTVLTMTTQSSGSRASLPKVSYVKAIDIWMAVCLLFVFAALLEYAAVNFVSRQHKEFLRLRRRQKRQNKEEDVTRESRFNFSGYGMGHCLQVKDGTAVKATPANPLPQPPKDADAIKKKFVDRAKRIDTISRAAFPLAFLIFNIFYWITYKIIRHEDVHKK
Glycine receptor (Rattus norvegicus), sequence (P24524 whole entry, looked up): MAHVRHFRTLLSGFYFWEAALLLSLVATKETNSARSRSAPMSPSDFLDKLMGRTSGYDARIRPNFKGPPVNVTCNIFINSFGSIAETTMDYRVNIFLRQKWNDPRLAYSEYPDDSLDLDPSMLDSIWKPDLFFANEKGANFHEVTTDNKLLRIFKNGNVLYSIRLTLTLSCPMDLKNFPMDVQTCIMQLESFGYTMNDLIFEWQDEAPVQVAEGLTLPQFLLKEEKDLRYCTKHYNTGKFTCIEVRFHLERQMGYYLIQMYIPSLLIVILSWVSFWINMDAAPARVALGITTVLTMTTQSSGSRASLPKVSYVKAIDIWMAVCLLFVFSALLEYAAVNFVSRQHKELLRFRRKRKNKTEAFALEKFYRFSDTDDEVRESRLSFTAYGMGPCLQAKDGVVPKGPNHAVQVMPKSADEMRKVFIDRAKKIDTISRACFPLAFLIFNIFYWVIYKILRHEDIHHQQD
T5 sequence (O75311 whole entry): as the sequence (P24524 whole entry, looked up) above, with L11V, N32D, T372M, L381F, V398M, V399T, A406P, A414P, H461Q counted along it
T5 sequence (P48167 whole entry): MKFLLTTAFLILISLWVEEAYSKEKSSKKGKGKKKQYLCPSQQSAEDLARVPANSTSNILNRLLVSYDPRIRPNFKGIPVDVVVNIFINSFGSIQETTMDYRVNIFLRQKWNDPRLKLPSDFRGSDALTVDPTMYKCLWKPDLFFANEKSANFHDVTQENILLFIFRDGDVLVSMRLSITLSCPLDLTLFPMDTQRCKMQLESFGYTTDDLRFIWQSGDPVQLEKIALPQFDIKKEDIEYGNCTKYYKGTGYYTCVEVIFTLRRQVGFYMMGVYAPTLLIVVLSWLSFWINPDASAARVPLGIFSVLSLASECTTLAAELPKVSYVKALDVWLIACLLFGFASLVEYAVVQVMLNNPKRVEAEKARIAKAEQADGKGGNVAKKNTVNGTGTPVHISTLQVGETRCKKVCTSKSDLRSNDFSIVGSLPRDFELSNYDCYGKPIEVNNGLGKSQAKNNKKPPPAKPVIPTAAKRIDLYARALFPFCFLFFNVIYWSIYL
Glycine receptor (alpha-1/beta), sequence (P48167 whole entry, one chain of several): as the sequence (P48167 whole entry) above

CN1[C@@H]2CC[C@H]1C[C@@H](NC(=O)c1nn(C)c3ccccc13)C2
fold change (FC) [1]: 1.73

CN1CCN(c2nc3ccccc3nc2Cl)CC1
Ki [2]: 0.04 nM
Ki [3]: 22 nM

CCCCCc1ccc2c(c1)OC(C)(C)[C@@H]1CCC(C)=C[C@@H]21
fold change (FC) [4]: 30

CN1C(=O)[C@@H]2CN(S(=O)(=O)c3ccc4occc4c3)C[C@@H]2c2cnccc21
EC50 [5]: 171 nM
EC50 [6]: 327 nM
fold change (FC) [7]: 16
EC50 [8]: 330 nM

CCCCNC(=O)c1nc2ccccc2nc1OC
Kb [9]: 20 nM

CC(C)c1cccc(C(C)C)c1O
Emax [10]: 189%
Emax [11]: 279%

COc1nc2ccccc2nc1C(=O)Nc1ccc(C)cc1
Kb [9]: 50.1 nM

O=C1C=C[C@H]([C@H]2c3cccc([N+](=O)[O-])c3C=CN2C(=O)OCc2ccccc2)O1
fold change (FC) [12]: 1.4
fold change (FC) [13]: 1.8
fold change (FC) [14]: 2.9
fold change (FC) [15]: 2.6
fold change (FC) [16]: 2.9
fold change (FC) [17]: 1.4
fold change (FC) [18]: 1.4
fold change (FC) [19]: 1.4
fold change (FC) [20]: 1.4
fold change (FC) [21]: 2.1
